{"source": "patent US4473554A", "about": "“Bestatin-related compounds as immunopotentiator” (Zaidan Hojin Biseibutsu Kagaku Kenkyu Kai, priority 1982, dated 1984)", "key": {"ICR-strain mice": {"test_system": "ICR-strain mice", "assay": "acute toxicity, intraperitoneal, ICR-strain mice", "format": "in vivo, mouse", "details": "dosage of 100 mg/kg", "source_text": "In order to estimate the acute toxicity of the compound of the formula (VIII) or (IIId), some of the test compound was intraperitoneally given to ICR-strain mice (in groups each consisting of 6 mice, male, 5 weeks-aged, average body weight 20 g.), when all the tested mice tolerated intraperitoneal administration of (2S,3R)-APHA; (2S)-2-N-[(2'S,3'R)-3'-amino-2'-hydroxy-4'-phenyl-butanoyl]amino-4-methyl- pentanol; (2S)-2-N-[(2'S,3'R)-3'-amino-2'-hydroxy-4'-phenylbutanoyl-(S)-leucyl]amino-4-methyl-pentanol; (2S,3R)-3-amino-2-hydroxy-4-phenylbutanoyl-(S)-leucyl-(S)-leucine; (2S,3R)-3-amino-2-hydroxy-4-phenyl-butanoyl-(S)-leucyl-(S)-arginine; (2S,3R)-3-amino-2-hydroxy-4-phenylbutanoyl-(S)-leucyl-(S)-asparagine; (2R,3R)-3-amino-2-hydroxy-4-phenylbutanoyl-(S)-leucyl-(R)-asparagine; and (2S,3R)-3-amino-2-hydroxy-4-phenylbutanoyl-(S)-leucyl-(R)-arginine at a dosage of 100 mg/kg."}, "aminopeptidase B": {"biological_target": "T1, aminopeptidase B (Rattus norvegicus, UniProt O09175)", "T1 sequence (O09175 1-650)": "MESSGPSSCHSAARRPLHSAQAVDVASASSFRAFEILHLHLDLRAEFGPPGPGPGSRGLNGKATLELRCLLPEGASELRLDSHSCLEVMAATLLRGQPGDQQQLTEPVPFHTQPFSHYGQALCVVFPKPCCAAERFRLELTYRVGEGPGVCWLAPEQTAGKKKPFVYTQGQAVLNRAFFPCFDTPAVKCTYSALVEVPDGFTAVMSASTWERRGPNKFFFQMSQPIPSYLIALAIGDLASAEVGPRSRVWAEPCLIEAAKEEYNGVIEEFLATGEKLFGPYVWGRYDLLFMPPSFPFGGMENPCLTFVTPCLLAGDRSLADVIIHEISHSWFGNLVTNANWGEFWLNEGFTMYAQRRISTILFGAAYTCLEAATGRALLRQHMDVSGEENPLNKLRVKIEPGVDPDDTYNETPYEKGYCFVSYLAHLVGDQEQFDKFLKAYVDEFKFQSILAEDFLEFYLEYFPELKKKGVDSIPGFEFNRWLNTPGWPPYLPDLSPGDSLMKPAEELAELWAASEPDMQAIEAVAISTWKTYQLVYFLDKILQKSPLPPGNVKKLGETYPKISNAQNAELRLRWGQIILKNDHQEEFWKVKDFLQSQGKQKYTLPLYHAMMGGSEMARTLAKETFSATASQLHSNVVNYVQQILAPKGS", "details": "Journal of Medicinal Chemistry Vol. 20, No.4, pp. 510-515 (1977); cited from earlier work"}, "[1]": {"test_system": "D.T.H. response in mice immunized with SRBC as antigen", "assay": "D.T.H. footpad test in mice immunized with SRBC, Examples 3-6 (dosages per mouse)", "format": "in vivo", "details": "for Degree of swelling: control = 100; for Degree of swelling, Intraperitoneal injection / Degree of swelling, Oral administration: Table 5", "experimental": "The effect of (2S,3R)-AHPA on cell-mediated immunity was tested in the same way in Example 2, namely according to the D.T.H. technique using mice immunized with sheep red blood cell as antigen. Thus, a suspension of 10^8 sheep red blood cells in 0.05 ml of physiological saline were subcutaneously injected at the time of immunization into the right hind footpad of each CDF1 -mouse under test (female, 8 weeks-aged, 5 mice in each group) to establish D.T.H. […] The degree of swelling was evaluated. By way of comparison, bestatin was tested in the same way as above. […] The effect of (2S,3R)-AHPA on the D.T.H. response was estimated in the same manner as in the above procedure (A) of Example 3 by orally administering 1 mcg/mouse, 0.1 mcg/mouse or 0.01 mcg/mouse of (2S,3R)-AHPA to each mouse under test. […] The effect of the mode of administering (2S,3R)-AHPA on the D.T.H. response was estimated in the same manner as in the procedure (A) of Example 3, except that the test compound (as aqueous solution) was injected intraperitoneally in stead of being given orally."}}}
{"compound": "N[C@H](Cc1ccccc1)[C@H](O)C(=O)O", "note": "[(2S,3R)-AHPA]", "values": [{"measurement": "solubility in water", "setting": "solubility in water", "value": "soluble in water"}, {"measurement": "acute toxicity: tolerance of intraperitoneal administration", "setting": "ICR-strain mice", "value": "tolerated"}, {"measurement": "inhibitory activity to aminopeptidase B", "setting": "aminopeptidase B", "value": "weak inhibitory activity"}, {"measurement": "Increase in thickness of footpad (± S.D.)", "setting": "[1]; Table 3, oral 0.01 mcg/mouse", "value": "10.6 ± 1.17", "unit": "× 0.1 mm"}, {"measurement": "Degree of swelling", "setting": "[1]; Table 3, oral 0.01 mcg/mouse", "value": 134, "unit": "%"}, {"measurement": "Increase in thickness of footpad (± S.D.)", "setting": "[1]; Table 3, oral 0.1 mcg/mouse", "value": "11.6 ± 1.85", "unit": "× 0.1 mm"}, {"measurement": "Degree of swelling", "setting": "[1]; Table 3, oral 0.1 mcg/mouse", "value": 147, "unit": "%"}, {"measurement": "Increase in thickness of footpad (± S.D.)", "setting": "[1]; Table 3, oral 1 mcg/mouse", "value": "11.9 ± 0.97", "unit": "× 0.1 mm"}, {"measurement": "Degree of swelling", "setting": "[1]; Table 3, oral 1 mcg/mouse", "value": 151, "unit": "%"}, {"measurement": "Increase in thickness of footpad (± S.D.)", "setting": "[1]; Table 3, oral 10 mcg/mouse", "value": "10.9 ± 0.57", "unit": "× 0.1 mm"}, {"measurement": "Degree of swelling", "setting": "[1]; Table 3, oral 10 mcg/mouse", "value": 138, "unit": "%"}, {"measurement": "Increase in thickness of footpad (± S.D.)", "setting": "[1]; Table 4, oral 0.01 mcg/mouse", "value": "10.1 ± 1.52", "unit": "× 0.1 mm"}, {"measurement": "Degree of swelling", "setting": "[1]; Table 4, oral 0.01 mcg/mouse", "value": 125, "unit": "%"}, {"measurement": "Increase in thickness of footpad (± S.D.)", "setting": "[1]; Table 4, oral 0.1 mcg/mouse", "value": "11.1 ± 0.82", "unit": "× 0.1 mm"}, {"measurement": "Degree of swelling", "setting": "[1]; Table 4, oral 0.1 mcg/mouse", "value": 137, "unit": "%"}, {"measurement": "Increase in thickness of footpad (± S.D.)", "setting": "[1]; Table 4, oral 1 mcg/mouse", "value": "10.8 ± 1.29", "unit": "× 0.1 mm"}, {"measurement": "Degree of swelling", "setting": "[1]; Table 4, oral 1 mcg/mouse", "value": 133, "unit": "%"}, {"measurement": "Degree of swelling, Intraperitoneal injection", "setting": "[1]; intraperitoneal 1 mcg/mouse", "value": 143, "unit": "%"}, {"measurement": "Degree of swelling, Intraperitoneal injection", "setting": "[1]; intraperitoneal 10 mcg/mouse", "value": 128, "unit": "%"}, {"measurement": "Degree of swelling, Oral administration", "setting": "[1]; oral 1 mcg/mouse", "value": 135, "unit": "%"}, {"measurement": "Degree of swelling, Oral administration", "setting": "[1]; oral 10 mcg/mouse", "value": 126, "unit": "%"}, {"measurement": "Increase in thickness of footpad (± S.D.)", "setting": "[1]; Table 7, oral 1 mcg/mouse", "value": "11.7 ± 1.29", "unit": "× 0.1 mm"}, {"measurement": "Degree of swelling", "setting": "[1]; Table 7, oral 1 mcg/mouse", "value": 135, "unit": "%"}, {"measurement": "Increase in thickness of footpad (± S.D.)", "setting": "[1]; Table 7, oral 10 mcg/mouse", "value": "11.0 ± 1.05", "unit": "× 0.1 mm"}, {"measurement": "Degree of swelling", "setting": "[1]; Table 7, oral 10 mcg/mouse", "value": 126, "unit": "%"}, {"measurement": "enhancement of cell-mediated immunity compared with bestatin", "setting": "[1]; intraperitoneal injection or oral administration", "value": "enhances the cell-mediated immunity as much as or much more than bestatin"}, {"measurement": "immunopotentiating activity compared with bestatin", "setting": "[1]; oral 0.01 to 10 mcg/mouse versus bestatin oral 1 to 10 mcg/mouse", "value": "exhibits the immunopotentiating activity as high as bestatin"}, {"measurement": "enhancement of D.T.H. response compared with bestatin", "setting": "[1]; oral, dosages lower than 1 mcg/mouse", "value": "enhances the D.T.H. response much more than bestatin"}, {"measurement": "enhancement of cell-mediated immunity", "setting": "[1]; oral, low dosage of 0.01 mcg/mouse", "value": "active to enhance the cell-mediated immunity"}]}
